Reference: ChEMBL document CHEMBL1136937, “Discovery of a potent class I selective ketone histone deacetylase inhibitor with antitumor activity in vivo and optimized pharmacokinetic properties” (J Med Chem, 2009)
Converted amounts (≈) assume the structure as drawn. The source made the active and inactive calls. No cut-off for these calls is given here.

Tests used:
[1] = system: HeLa; assay: Antiproliferative activity against human P53-deficient HeLa cells after 72 hrs by celltiter-blue cell viability assay; assay type: functional
[2] = Metabolic stability in human liver microsomes assessed as intrinsic clearance at 1 uM after 90 mins; assay type: ADME, Microsome; details: liver microsomes
[3] = molecular target: Histone deacetylase 1 (Homo sapiens, UniProt Q13547)
Chain of Histone deacetylase 1 (Q13547 whole entry): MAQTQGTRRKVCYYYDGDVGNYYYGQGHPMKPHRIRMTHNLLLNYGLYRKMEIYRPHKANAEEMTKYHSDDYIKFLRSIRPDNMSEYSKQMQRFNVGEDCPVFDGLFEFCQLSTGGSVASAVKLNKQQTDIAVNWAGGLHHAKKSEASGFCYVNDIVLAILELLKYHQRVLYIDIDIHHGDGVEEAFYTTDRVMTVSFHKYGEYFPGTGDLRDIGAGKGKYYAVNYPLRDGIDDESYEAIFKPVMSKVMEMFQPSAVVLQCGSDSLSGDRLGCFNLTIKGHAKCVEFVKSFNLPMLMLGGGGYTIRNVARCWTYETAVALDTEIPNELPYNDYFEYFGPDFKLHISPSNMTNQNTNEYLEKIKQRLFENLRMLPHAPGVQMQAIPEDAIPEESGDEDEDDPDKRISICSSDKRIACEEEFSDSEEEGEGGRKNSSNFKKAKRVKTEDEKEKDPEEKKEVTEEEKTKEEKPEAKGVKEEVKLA
Description: Inhibition of human C-terminal FLAG-tagged HDAC1 in HEK293 cells

[4] = Metabolic stability in rat liver microsomes assessed as intrinsic clearance at 1 uM after 90 mins; assay type: ADME, Microsome
[5] = Metabolic stability in dog liver microsomes assessed as intrinsic clearance at 1 uM after 90 mins; assay type: ADME, Canis lupus familiaris, Microsome; details: liver microsomes
[6] = Clearance in Sprague-Dawley rat plasma at 3 mg/kg, iv and 3 mg/kg, po; assay type: ADME, organism-based
[7] = molecular target: T1, Protein deacetylase HDAC6 (Homo sapiens, UniProt Q9UBN7)
T1 sequence (Q9UBN7 whole entry): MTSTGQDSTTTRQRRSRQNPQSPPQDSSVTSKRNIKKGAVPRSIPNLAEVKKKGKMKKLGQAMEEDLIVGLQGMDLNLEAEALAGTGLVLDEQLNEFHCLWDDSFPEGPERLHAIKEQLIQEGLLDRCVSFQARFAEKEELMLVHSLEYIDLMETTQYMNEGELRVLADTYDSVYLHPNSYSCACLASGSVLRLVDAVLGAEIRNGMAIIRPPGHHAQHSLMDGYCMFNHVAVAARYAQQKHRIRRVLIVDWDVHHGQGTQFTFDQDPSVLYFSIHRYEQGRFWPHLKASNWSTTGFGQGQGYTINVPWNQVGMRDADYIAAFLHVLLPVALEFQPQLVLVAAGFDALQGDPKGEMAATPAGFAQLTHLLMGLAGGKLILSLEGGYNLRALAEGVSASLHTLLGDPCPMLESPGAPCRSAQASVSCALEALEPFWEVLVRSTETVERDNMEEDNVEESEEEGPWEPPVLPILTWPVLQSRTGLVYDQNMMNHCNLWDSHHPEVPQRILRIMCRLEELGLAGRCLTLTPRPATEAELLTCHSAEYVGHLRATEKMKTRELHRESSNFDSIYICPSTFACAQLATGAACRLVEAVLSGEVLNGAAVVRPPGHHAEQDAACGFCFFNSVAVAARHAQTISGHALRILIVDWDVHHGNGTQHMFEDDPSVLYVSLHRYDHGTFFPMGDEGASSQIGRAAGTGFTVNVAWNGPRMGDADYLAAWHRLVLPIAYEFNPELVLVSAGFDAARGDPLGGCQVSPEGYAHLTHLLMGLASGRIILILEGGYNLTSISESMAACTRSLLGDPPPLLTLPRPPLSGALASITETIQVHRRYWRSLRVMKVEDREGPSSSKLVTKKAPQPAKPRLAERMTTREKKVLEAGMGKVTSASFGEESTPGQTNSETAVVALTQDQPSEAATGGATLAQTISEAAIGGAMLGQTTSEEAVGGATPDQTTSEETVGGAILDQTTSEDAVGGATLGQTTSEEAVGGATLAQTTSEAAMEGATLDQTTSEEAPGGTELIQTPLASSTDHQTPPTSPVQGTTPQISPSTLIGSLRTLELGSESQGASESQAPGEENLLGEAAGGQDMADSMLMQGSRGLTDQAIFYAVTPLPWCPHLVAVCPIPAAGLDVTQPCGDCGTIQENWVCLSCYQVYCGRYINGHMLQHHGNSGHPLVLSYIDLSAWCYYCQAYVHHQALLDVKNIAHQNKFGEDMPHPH
Description: Inhibition of C-terminal FLAG-tagged HDAC6 expressed in mammalian cells

[8] = Oral bioavailability in Sprague-Dawley rat at 3 mg/kg; assay type: ADME, organism-based; details: in vivo
[9] = Clearance in Beagle dog at 1 mg/kg, iv and 2 mg/kg, po; assay type: ADME, organism-based, Canis lupus familiaris; details: in vivo
[10] = system: HCT-116; assay: Antitumor activity against human HCT116 cells xenografted nude mouse assessed as reduction in tumor growth at […], ip administered once daily for 5 days per week; assay type: functional, organism-based
[11] = Terminal half life in Beagle dog at 1 mg/kg, iv and 2 mg/kg, po; assay type: ADME, organism-based, Canis lupus familiaris; details: in vivo, read-out: beta t1/2 (converted)
[12] = Oral bioavailability in Beagle dog at 2 mg/kg; assay type: ADME, organism-based, Canis lupus familiaris; details: in vivo
[13] = system: G-401; assay: Antiproliferative activity against human G401 cells after 72 hrs by celltiter-blue cell viability assay; assay type: functional; details: Homo sapiens, G-401, 72 h
[14] = Toxicity in ip dosed BALB/c nu/nu mouse assessed as maximum tolerated dose; assay type: organism-based; details: in vivo
[15] = system: Mus musculus; assay: Toxicity in BALB/c nu/nu mouse assessed as adverse effect at 10 mg/kg, ip administered once daily for 5 days per week; assay type: organism-based; design: dose 10 mg/kg, route intraperitoneal; details: in vivo, 120 h
[16] = system: HCT-116; assay: Antiproliferative activity against human P53 expressing HCT116 cells after 72 hrs by celltiter-blue cell viability assay; assay type: functional; details: Homo sapiens, HCT-116, 72 h
[17] = Solubility in buffered aqueous solution at pH 4.1; assay type: physicochemical
[18] = system: Mus musculus; assay: Toxicity in BALB/c nu/nu mouse assessed as body weight loss at 10 mg/kg, ip administered once daily for 5 days per week; assay type: organism-based; design: dose 10 mg/kg, route intraperitoneal; details: in vivo, 120 h
[19] = molecular target: T2, Histone deacetylase 7 (Homo sapiens, UniProt Q8WUI4); assay: Inhibition of wild type His-tagged HDAC7 catalytic domain T515-L952 expressed in Escherichia coli
T2 sequence (Q8WUI4 whole entry): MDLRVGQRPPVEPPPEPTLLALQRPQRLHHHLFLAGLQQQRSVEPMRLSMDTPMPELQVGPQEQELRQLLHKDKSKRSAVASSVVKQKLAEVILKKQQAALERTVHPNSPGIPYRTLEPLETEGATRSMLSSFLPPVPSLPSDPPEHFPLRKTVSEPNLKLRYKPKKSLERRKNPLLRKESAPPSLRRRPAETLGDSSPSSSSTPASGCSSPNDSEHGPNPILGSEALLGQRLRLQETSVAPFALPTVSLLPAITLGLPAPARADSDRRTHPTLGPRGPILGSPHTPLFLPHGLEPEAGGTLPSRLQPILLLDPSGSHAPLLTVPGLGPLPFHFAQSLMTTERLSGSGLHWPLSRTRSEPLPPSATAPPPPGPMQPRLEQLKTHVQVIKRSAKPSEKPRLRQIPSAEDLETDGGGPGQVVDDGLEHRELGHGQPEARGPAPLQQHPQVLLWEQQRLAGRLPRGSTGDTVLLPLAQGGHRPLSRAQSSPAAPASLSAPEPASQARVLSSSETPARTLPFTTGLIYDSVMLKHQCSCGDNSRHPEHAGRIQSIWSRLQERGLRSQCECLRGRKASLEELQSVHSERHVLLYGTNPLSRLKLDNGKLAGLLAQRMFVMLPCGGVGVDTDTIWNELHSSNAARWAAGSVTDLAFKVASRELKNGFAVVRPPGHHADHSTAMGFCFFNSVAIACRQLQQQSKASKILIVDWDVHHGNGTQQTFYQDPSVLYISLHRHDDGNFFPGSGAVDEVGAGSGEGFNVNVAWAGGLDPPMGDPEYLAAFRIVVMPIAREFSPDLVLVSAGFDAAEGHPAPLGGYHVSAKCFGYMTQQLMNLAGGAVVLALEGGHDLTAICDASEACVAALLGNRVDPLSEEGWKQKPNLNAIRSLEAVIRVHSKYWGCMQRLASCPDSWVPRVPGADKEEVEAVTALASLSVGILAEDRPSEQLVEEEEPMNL

[20] = Plasma concentration in Sprague-Dawley rat at 3 mg/kg, po after 24 hrs; assay type: ADME, organism-based; design: dose 3 mg/kg, route oral
[21] = molecular target: Histone deacetylase 5 (Homo sapiens, UniProt Q9UQL6); assay: Inhibition of wild type His-tagged HDAC5 catalytic domain T678-L1122 expressed in Escherichia coli
Chain of Histone deacetylase 5 (Q9UQL6 whole entry, the tested form may be a part): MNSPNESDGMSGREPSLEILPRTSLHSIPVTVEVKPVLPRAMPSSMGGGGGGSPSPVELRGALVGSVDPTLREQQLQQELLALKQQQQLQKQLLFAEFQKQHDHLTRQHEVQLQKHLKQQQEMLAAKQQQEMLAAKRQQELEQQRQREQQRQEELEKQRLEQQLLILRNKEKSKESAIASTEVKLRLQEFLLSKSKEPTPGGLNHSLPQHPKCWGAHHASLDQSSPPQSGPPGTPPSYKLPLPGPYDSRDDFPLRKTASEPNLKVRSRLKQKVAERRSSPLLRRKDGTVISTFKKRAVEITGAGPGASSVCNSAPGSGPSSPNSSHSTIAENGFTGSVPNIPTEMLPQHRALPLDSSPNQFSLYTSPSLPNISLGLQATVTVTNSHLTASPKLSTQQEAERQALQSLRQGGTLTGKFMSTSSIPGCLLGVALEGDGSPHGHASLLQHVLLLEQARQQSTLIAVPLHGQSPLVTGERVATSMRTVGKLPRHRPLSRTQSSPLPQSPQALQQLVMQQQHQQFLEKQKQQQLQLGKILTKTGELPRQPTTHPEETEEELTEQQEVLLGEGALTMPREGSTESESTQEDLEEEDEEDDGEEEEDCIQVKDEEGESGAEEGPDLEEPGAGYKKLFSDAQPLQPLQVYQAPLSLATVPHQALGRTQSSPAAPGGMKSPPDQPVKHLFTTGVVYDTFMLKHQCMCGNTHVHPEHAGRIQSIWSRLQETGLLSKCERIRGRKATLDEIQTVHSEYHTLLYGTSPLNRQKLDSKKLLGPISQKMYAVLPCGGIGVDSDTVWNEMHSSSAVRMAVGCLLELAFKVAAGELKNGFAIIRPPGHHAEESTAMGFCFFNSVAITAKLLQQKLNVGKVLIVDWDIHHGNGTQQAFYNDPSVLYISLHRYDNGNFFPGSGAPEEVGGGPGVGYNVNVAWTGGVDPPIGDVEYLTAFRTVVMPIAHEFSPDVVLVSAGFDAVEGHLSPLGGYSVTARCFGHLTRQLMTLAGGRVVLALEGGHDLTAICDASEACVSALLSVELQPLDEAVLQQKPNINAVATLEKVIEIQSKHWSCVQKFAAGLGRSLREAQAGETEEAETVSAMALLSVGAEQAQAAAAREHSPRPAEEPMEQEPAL

[22] = molecular target: T3, Cytochrome P450 3A4 (Homo sapiens, UniProt P08684); assay: Inhibition of CYP3A4; assay type: ADME
T3 sequence (P08684 whole entry): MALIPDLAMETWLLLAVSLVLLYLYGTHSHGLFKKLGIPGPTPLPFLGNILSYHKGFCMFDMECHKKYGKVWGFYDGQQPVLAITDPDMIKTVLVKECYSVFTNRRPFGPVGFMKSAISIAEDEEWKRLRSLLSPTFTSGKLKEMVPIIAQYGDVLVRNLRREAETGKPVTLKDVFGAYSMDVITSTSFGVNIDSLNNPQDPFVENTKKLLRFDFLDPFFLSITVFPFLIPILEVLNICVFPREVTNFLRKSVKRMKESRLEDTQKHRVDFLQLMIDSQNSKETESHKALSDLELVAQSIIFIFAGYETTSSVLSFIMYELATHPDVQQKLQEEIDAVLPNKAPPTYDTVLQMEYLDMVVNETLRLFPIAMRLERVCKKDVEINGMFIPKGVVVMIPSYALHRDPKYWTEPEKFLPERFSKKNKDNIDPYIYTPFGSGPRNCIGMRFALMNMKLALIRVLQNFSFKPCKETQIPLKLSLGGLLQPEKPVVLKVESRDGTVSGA

[23] = Terminal half life in Sprague-Dawley rat at 3 mg/kg, iv and 3 mg/kg, po; assay type: ADME, organism-based; details: in vivo, read-out: beta t1/2 (converted)
[24] = molecular target: T3, Cytochrome P450 3A4; assay: Induction of CYP3A4; assay type: ADME
[25] = system: U-937; assay: Antiproliferative activity against human U937 cells after 72 hrs by celltiter-blue cell viability assay; assay type: functional; details: U-937, 72 h
[26] = Plasma concentration in Beagle dog at 2 mg/kg, po after 24 hrs; assay type: ADME, organism-based, Canis lupus familiaris; design: dose 2 mg/kg, route oral
[27] = Volume of distribution at steady state in Sprague-Dawley rat at 3 mg/kg, iv and 3 mg/kg, po; assay type: ADME, organism-based; details: in vivo, read-out: Vdss
[28] = system: A2780; assay: Antiproliferative activity against human A2780 cells after 72 hrs by celltiter-blue cell viability assay; assay type: functional; details: A2780, 72 h
[29] = system: HCT-116; assay: Antitumor activity against human HCT116 cells xenografted BALB/c nu/nu mouse assessed as reduction in tumor growth at 10 mg/kg, ip administered once daily for 5 days per week; assay type: functional, organism-based; design: dose 10 mg/kg
[30] = system: MCF7; assay: Antiproliferative activity against human MCF7 cells after 72 hrs by celltiter-blue cell viability assay; assay type: functional; details: Homo sapiens, MCF7, 72 h
[31] = molecular target: Cytochrome P450 2C9 (Homo sapiens, UniProt P11712); assay: Inhibition of CYP2C9; assay type: ADME
Chain of Cytochrome P450 2C9 (P11712 whole entry): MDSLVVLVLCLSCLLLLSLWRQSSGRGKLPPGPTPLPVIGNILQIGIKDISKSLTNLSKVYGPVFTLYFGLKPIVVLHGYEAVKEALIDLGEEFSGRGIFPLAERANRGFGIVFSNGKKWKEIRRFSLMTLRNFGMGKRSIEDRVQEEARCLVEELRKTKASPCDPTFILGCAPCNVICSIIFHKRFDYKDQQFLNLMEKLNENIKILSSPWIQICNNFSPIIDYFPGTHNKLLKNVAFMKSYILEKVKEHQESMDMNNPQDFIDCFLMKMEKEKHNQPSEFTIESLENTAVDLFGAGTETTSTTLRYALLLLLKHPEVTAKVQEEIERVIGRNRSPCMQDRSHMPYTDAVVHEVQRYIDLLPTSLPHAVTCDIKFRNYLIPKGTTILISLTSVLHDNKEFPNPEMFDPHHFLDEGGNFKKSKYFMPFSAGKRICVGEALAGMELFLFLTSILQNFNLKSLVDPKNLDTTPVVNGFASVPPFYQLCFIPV

[32] = system: A549; assay: Antiproliferative activity against human P53 expressing A549 cells after 72 hrs by celltiter-blue cell viability assay; assay type: functional; details: A549, 72 h
[33] = Volume of distribution at steady state in Beagle dog at 1 mg/kg, iv and 2 mg/kg, po; assay type: ADME, organism-based, Canis lupus familiaris; details: in vivo, read-out: Vdss

CCC(=O)CCCCC[C@H](NC(=O)CCN(C)C)c1ncc(-c2cc(OC)c3ccccc3n2)[nH]1
CC50 [1]: 500 nM
microsomal CLint at 1 µM [2]: 15 µL/min/mg
IC50 [3]: 51 nM
microsomal CLint at 1 µM [4]: 38 µL/min/mg
microsomal CLint at 1 µM [5]: 6 µL/min/mg
clearance [6]: 59 mL/min/kg

CCC(=O)CCCCC[C@H](NC(=O)C1CN(C)C1)c1ncc(-c2cc3ccccc3nc2OC)[nH]1
IC50 [7]: 680000 nM
bioavailability [8]: 73%
CC50 [1]: 135 nM
clearance [9]: 4 mL/min/kg
Activity [10]: Active
microsomal CLint at 1 µM [2]: 31 µL/min/mg
half-life [11]: 14 h
bioavailability [12]: 31%
CC50 [13]: 370 nM
MTD [14]: 10 mg/kg
Activity [15]: Non-toxic
microsomal CLint at 1 µM [4]: 29 µL/min/mg
CC50 [16]: 220 nM
solubility [17]: 13 mg/mL (≈ 27.2 mM)
Activity [18]: Non-toxic
IC50 [19]: > 10000 nM
concentration at 24 h [20]: > 100 nM
IC50 [21]: > 10000 nM
Activity [22]: Not Active
half-life [23]: 7 h
Activity [24]: Not Active
microsomal CLint at 1 µM [5]: 29 µL/min/mg
CC50 [25]: 240 nM
concentration at 24 h [26]: > 100 nM
Vd [27]: 7.9 L/kg
CC50 [28]: 740 nM
Activity [29]: Active
CC50 [30]: 750 nM
IC50 [31]: 5500 nM
clearance [6]: 19 mL/min/kg
CC50 [32]: 490 nM
Vd [33]: 3.5 L/kg

CCC(=O)CCCCC[C@H](NC(=O)CCN1CCN(C)CC1)c1ncc(-c2cc(OC)c3ccccc3n2)[nH]1
CC50 [1]: 390 nM
microsomal CLint at 1 µM [2]: 140 µL/min/mg
IC50 [3]: 17 nM
microsomal CLint at 1 µM [4]: 190 µL/min/mg
microsomal CLint at 1 µM [5]: 170 µL/min/mg

CCC(=O)CCCCC[C@H](NC(=O)C1CCN(C)CC1)c1ncc(-c2ccc3ccccc3c2)[nH]1
CC50 [1]: 210 nM
microsomal CLint at 1 µM [2]: 194 µL/min/mg
microsomal CLint at 1 µM [4]: > 200 µL/min/mg
microsomal CLint at 1 µM [5]: 194 µL/min/mg

Nc1ccccc1NC(=O)c1ccc(CNC(=O)OCc2cccnc2)cc1 [ENTINOSTAT]
CC50 [1]: 1800 nM
CC50 [13]: 1300 nM
CC50 [16]: 700 nM
CC50 [28]: 3000 nM
CC50 [32]: 1200 nM

CCC(=O)CCCCC[C@H](NC(=O)C1CN(C)C1)c1ncc(-c2ccc3nccnc3c2)[nH]1
CC50 [1]: 1200 nM
microsomal CLint at 1 µM [2]: < 1 µL/min/mg
IC50 [3]: 39 nM
microsomal CLint at 1 µM [4]: 13 µL/min/mg
microsomal CLint at 1 µM [5]: 3 µL/min/mg

CCC(=O)CCCCC[C@H](NC(=O)C1CCN(C)CC1)c1ncc(-c2cnc3ccccc3c2)[nH]1
CC50 [1]: 250 nM
microsomal CLint at 1 µM [2]: 49 µL/min/mg
IC50 [3]: 4 nM
microsomal CLint at 1 µM [4]: 510 µL/min/mg
microsomal CLint at 1 µM [5]: 24 µL/min/mg

CCC(=O)CCCCC[C@H](NC(=O)C1CCN(C)CC1)c1ncc(-c2ccc3ncccc3c2)[nH]1
CC50 [1]: 200 nM
microsomal CLint at 1 µM [2]: 12 µL/min/mg
IC50 [3]: 2 nM
microsomal CLint at 1 µM [4]: 98 µL/min/mg
microsomal CLint at 1 µM [5]: 23 µL/min/mg
